This passage reports IC50 results from patent US20140135270A1, “MACROCYCLIC COMPOUNDS FOR INHIBITION OF INHIBITORS OF APOPTOSIS” (Ensemble Therapeutics Corp., priority 2012, published 2014).

The structures appear in SMILES notation.

For test [1], the target named is T1, His-BIR2-3 (125-356, C202A/C213G, XIAP) (Homo sapiens, UniProt P98170, C202A/C213G).
T1 construct: additions of His-BIR2-3 (125-356, C202A/C213G, XIAP), fluorescein labeled dimeric SMAC peptide
Kind of test: XIAP-BIR2-3 Dimeric SMAC Peptide Homogeneous Time Resolved Fluorescence (HTRF) Assay. Type of test: binding. Particulars: fluorescein labeled dimeric SMAC peptide. Background: TR-FRET usually uses a lanthanide donor and a delayed reading to cut background.

For another test, the target named is T2, His-BIR3 (241-356, XIAP) (Homo sapiens, UniProt P98170).
T2 construct: additions of His-BIR3 (241-356, XIAP), fluorescein labeled SMAC peptide
Kind of test: XIAP-BIR3/SMAC Homogeneous Time Resolved Fluorescence (HTRF) Assay. Particulars: fluorescein labeled SMAC peptide. In kind it is binding.

T2 sequence (P98170 241-356): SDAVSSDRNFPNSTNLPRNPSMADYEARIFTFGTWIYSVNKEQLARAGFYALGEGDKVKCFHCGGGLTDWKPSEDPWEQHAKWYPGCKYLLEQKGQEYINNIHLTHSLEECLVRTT
T1 sequence (P98170 125-356 C202A/C213G): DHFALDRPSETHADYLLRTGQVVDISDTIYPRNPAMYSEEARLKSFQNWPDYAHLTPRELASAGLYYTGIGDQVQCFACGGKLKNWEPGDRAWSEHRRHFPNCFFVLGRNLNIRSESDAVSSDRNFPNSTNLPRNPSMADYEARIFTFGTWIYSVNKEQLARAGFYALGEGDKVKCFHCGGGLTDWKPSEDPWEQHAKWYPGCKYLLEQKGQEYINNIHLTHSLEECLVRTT

The IC50 is the concentration at which inhibition is half-maximal. `CN[C@@H](C)C(=O)N[C@H](C(=O)N1C[C@@H]2C[C@H]1C(=O)N[C@@H](Cc1ccc3ccccc3c1)C(=O)N[C@H](C(=O)O)Cc1ccc(cc1)OCCCC[C@H]1C[C@@H](C(=O)N[C@@H](Cc3ccc4ccccc4c3)C(=O)N[C@H](C(=O)NS(C)(=O)=O)Cc3ccc(cc3)OCc3cn2nn3)N(C(=O)[C@@H](NC(=O)[C@H](C)NC)C(C)(C)C)C1)C(C)(C)C` [Example 2]: the IC50 in test [1] was found to be 0.8 nM; on His-BIR3 (241-356, XIAP), 2.3 nM.
The corresponding values for `CN[C@@H](C)C(=O)N[C@H](C(=O)N1C[C@@H]2C[C@H]1C(=O)N[C@@H](Cc1ccc3ccccc3c1)C(=O)N[C@H](C(=O)O)Cc1ccc(cc1)OCc1cn(nn1)[C@H]1C[C@@H](C(=O)N[C@@H](Cc3ccc4ccccc4c3)C(=O)N[C@H](C(=O)NS(=O)(=O)C3CC3)Cc3ccc(cc3)OCCCCO2)N(C(=O)[C@@H](NC(=O)[C@H](C)NC)C(C)(C)C)C1)C(C)(C)C` [Example 122] are 11.3 nM and 12.9 nM.
Taken in the same sequence, the figures for `CN[C@@H](C)C(=O)N[C@H](C(=O)N1C[C@@H]2C[C@H]1C(=O)N[C@@H](Cc1ccc3ccccc3c1)C(=O)N[C@H](C(=O)O)Cc1ccc(cc1)OC/C=C/CO[C@H]1C[C@@H](C(=O)N[C@@H](Cc3ccc(-c4ccccc4)cc3)C(=O)N[C@H](C(=O)NS(=O)(=O)C3CC3)Cc3ccc(cc3)OCc3cn2nn3)N(C(=O)[C@@H](NC(=O)[C@H](C)NC)C(C)(C)C)C1)C(C)(C)C` [Example 106] were 1.7 nM and 17.9 nM.
The corresponding values for `CN[C@@H](C)C(=O)N[C@H](C(=O)N1C[C@@H]2C[C@H]1C(=O)N[C@@H](Cc1ccc3ccccc3c1)C(=O)N[C@H](C(=O)O)Cc1ccc(cc1)OCc1cn(nn1)[C@H]1C[C@@H](C(=O)N[C@@H](Cc3ccc4ccccc4c3)C(=O)N[C@H](C(=O)NS(C)(=O)=O)Cc3ccc(cc3)OCCCCO2)N(C(=O)[C@@H](NC(=O)[C@H](C)NC)C(C)(C)C)C1)C(C)(C)C` [Example 124] are 13.6 nM and 19.4 nM.
With `CN[C@@H](C)C(=O)N[C@H](C(=O)N1C[C@@H]2C[C@H]1C(=O)N[C@@H](Cc1ccc3ccccc3c1)C(=O)N[C@H](C(=O)O)CCC(=O)N[C@H]1C[C@@H](C(=O)N[C@@H](Cc3ccc4ccccc4c3)C(=O)N[C@H](C(=O)O)Cc3ccc(cc3)OC/C=C/CO2)N(C(=O)[C@@H](NC(=O)[C@H](C)NC)C(C)(C)C)C1)[C@H](C)O` [Example 57], the IC50 in test [1] was found to be 12.1 nM; against His-BIR3 (241-356, XIAP) it was 201 nM.
For `CN[C@@H](C)C(=O)N[C@H](C(=O)N1C[C@H]2C/C=C/COc3ccc(cc3)C[C@@H](C(=O)NS(C)(=O)=O)NC(=O)[C@H](Cc3ccc4ccccc4c3)NC(=O)[C@@H]3C[C@@H](CN3C(=O)[C@@H](NC(=O)[C@H](C)NC)C(C)(C)C)n3cc(nn3)COc3ccc(cc3)C[C@@H](C(=O)O)NC(=O)[C@H](Cc3ccc4ccccc4c3)NC(=O)[C@@H]1C2)C(C)(C)C` [Example 26], the IC50 was 0.9 nM in test [1] and 3.9 nM on His-BIR3 (241-356, XIAP).
The corresponding values for `CN[C@@H](C)C(=O)N[C@H](C(=O)N1C[C@@H]2C[C@H]1C(=O)N[C@@H](Cc1ccc3ccccc3c1)C(=O)N[C@H](C(=O)O)Cc1ccc(cc1)C(=O)N[C@H]1C[C@@H](C(=O)N[C@@H](Cc3ccc4ccccc4c3)C(=O)N[C@H](C(=O)O)Cc3ccc(cc3)OC/C=C/CO2)N(C(=O)[C@@H](NC(=O)[C@H](C)NC)C(C)(C)C)C1)C1CCCCC1` [Example 71] are 3.7 nM and 27.9 nM.
Regarding `CN[C@@H](C)C(=O)N[C@H](C(=O)N1C[C@H]2C/C=C/COc3ccc(cc3)C[C@@H](C(=O)NS(=O)(=O)C3CC3)NC(=O)[C@H](Cc3ccc4ccccc4c3)NC(=O)[C@@H]3C[C@@H](CN3C(=O)[C@@H](NC(=O)[C@H](C)NC)C(C)(C)C)n3cc(nn3)COc3ccc(cc3)C[C@@H](C(=O)O)NC(=O)[C@H](Cc3ccc4ccccc4c3)NC(=O)[C@@H]1C2)C(C)(C)C` [Example 25], the IC50 was 0.2 nM in test [1] and 0.9 nM against His-BIR3 (241-356, XIAP).
Regarding `CN[C@@H](C)C(=O)N[C@H](C(=O)N1CC[C@@H]2OC/C=C/COc3ccc(cc3)C[C@@H](C(=O)O)NC(=O)[C@H](Cc3ccc4ccccc4c3)NC(=O)[C@@H]3[C@@H](CCN3C(=O)[C@@H](NC(=O)[C@H](C)NC)C(C)(C)C)OCc3cn(nn3)CCC[C@@H](C(=O)O)NC(=O)[C@H](Cc3ccc4ccccc4c3)NC(=O)[C@H]21)C(C)(C)C` [Example 11], the IC50 was determined as 2.3 nM in test [1] and 0.8 nM against His-BIR3 (241-356, XIAP).
Consider `CN[C@@H](C)C(=O)N[C@H](C(=O)N1C[C@@H]2C[C@H]1C(=O)NC(Cc1ccc3ccccc3c1)C(=O)N[C@H](C(=O)NS(=O)(=O)CCCO)Cc1ccc(cc1)OC/C=C/C[C@H]1C[C@@H](C(=O)N[C@@H](Cc3ccc4ccccc4c3)C(=O)N[C@H](C(=O)O)Cc3ccc(cc3)OCc3cn2nn3)N(C(=O)[C@@H](NC(=O)[C@H](C)NC)C(C)(C)C)C1)C(C)(C)C` (stereo partly shown) [Example 94], for which the IC50 in test [1] was found to be 0.6 nM; at His-BIR3 (241-356, XIAP), 2.1 nM.
The corresponding values for `CC(C)[C@H](NC(=O)[C@H](C)N(C)C(=O)OC(C)(C)C)C(=O)N[C@H]1C/C=C/CC[C@@H](C(=O)O)NC(=O)[C@H](Cc2ccccc2)NC(=O)[C@@H]2CN(CCNC(=O)CC[C@@H](C(=O)OC(C)(C)C)NC(=O)[C@H](Cc3ccccc3)NC1=O)CCN2C(=O)[C@@H](NC(=O)[C@H](C)N(C)C(=O)OC(C)(C)C)C(C)C` [Example 82] are 2090 nM and 1100 nM.
The corresponding values for `CN[C@@H](C)C(=O)N[C@H](C(=O)N1C[C@@H]2C[C@H]1C(=O)N[C@@H](Cc1ccc3ccccc3c1)C(=O)N[C@H](C(=O)O)Cc1ccc(cc1)C(=O)N[C@H]1C[C@@H](C(=O)N[C@@H](Cc3ccc4ccccc4c3)C(=O)N[C@H](C(=O)O)Cc3ccc(cc3)OC/C=C/CO2)N(C(=O)[C@@H](NC(=O)[C@H](C)NC)C(C)(C)C)C1)C(C)C` [Example 75] are 1.7 nM and 9.7 nM.
The corresponding values for `CN[C@@H](C)C(=O)N[C@@H](CC(=O)O)C(=O)N1C[C@@H]2C[C@H]1C(=O)N[C@@H](Cc1ccc3ccccc3c1)C(=O)N[C@H](C(=O)O)Cc1ccc(cc1)C(=O)N[C@H]1C[C@@H](C(=O)N[C@@H](Cc3ccc4ccccc4c3)C(=O)N[C@H](C(=O)O)Cc3ccc(cc3)OC/C=C/CO2)N(C(=O)[C@@H](NC(=O)[C@H](C)NC)C(C)(C)C)C1` [Example 64] are 5.9 nM and 36.6 nM.
Consider `CN[C@@H](C)C(=O)N[C@H](C(=O)N1C[C@@H]2C[C@H]1C(=O)N[C@@H](Cc1ccc3ccccc3c1)C(=O)N[C@H](C(=O)O)Cc1ccc(cc1)OC/C=C/CO[C@H]1C[C@@H](C(=O)N[C@@H](Cc3c[nH]c4ccccc34)C(=O)N[C@H](C(=O)O)Cc3ccc(cc3)C(=O)N2)N(C(=O)[C@@H](NC(=O)[C@H](C)NC)C(C)(C)C)C1)C(C)(C)C` [Example 46], for which the IC50 is 5.3 nM in test [1] and 24.2 nM against His-BIR3 (241-356, XIAP).
Taken in the same sequence, the figures for `CN[C@@H](C)C(=O)N[C@H](C(=O)N1C[C@H]2CCCCOc3ccc(cc3)C[C@@H](C(=O)NS(=O)(=O)C3CC3)NC(=O)[C@H](Cc3ccc4ccccc4c3)NC(=O)[C@@H]3C[C@H](CCCCOc4ccc(cc4)C[C@@H](C(=O)O)NC(=O)[C@H](Cc4ccc5ccccc5c4)NC(=O)[C@@H]1C2)CN3C(=O)[C@@H](NC(=O)[C@H](C)NC)C(C)(C)C)C(C)(C)C` [Example 89] were 3 nM and 5.9 nM.
Consider `CN[C@@H](C)C(=O)N[C@H](C(=O)N1C[C@@H]2C[C@H]1C(=O)N[C@@H](Cc1ccc3ccccc3c1)C(=O)N[C@H](C(=O)O)Cc1ccc(cc1)OC/C=C/C[C@H]1C[C@@H](C(=O)N[C@@H](Cc3ccc4ccccc4c3)C(=O)N[C@H](C(=O)NS(=O)(=O)C3CC3)Cc3ccc(cc3)OCc3cn2nn3)N(C(=O)[C@@H](NC(=O)[C@H](C)NC)C(C)(C)C)C1)C(C)(C)C` [Example 86], for which the IC50 in test [1] is 1.1 nM; against His-BIR3 (241-356, XIAP) it was 1.7 nM.
The corresponding values for `CN[C@@H](C)C(=O)N[C@H](C(=O)N1C[C@@H]2C[C@H]1C(=O)N[C@@H](C)C(=O)N[C@H](C(=O)O)Cc1ccc(cc1)C(=O)N[C@H]1C[C@@H](C(=O)N[C@@H](Cc3ccc4ccccc4c3)C(=O)N[C@H](C(=O)O)Cc3ccc(cc3)OC/C=C/CO2)N(C(=O)[C@@H](NC(=O)[C@H](C)NC)C(C)(C)C)C1)C(C)(C)C` [Example 44] are 3.5 nM and 111 nM.
As to `CN[C@@H](C)C(=O)N[C@H](C(=O)N1CC[C@@H]2OC/C=C/CC[C@@H](C(=O)O)NC(=O)[C@H](Cc3ccc4ccccc4c3)NC(=O)[C@@H]3[C@H](CCN3C(=O)[C@@H](NC(=O)[C@H](C)NC)C(C)(C)C)OCc3cn(nn3)[C@H](C(=O)NS(C)(=O)=O)CCCNC(=O)[C@H](Cc3ccc4ccccc4c3)NC(=O)[C@H]21)C(C)(C)C` [Example 19], the IC50 in test [1] was found to be 16.8 nM; on His-BIR3 (241-356, XIAP) it was 35.3 nM.
Taken in the same sequence, the figures for `CN[C@@H](C)C(=O)NC(C(=O)N1C[C@@H]2C[C@H]1C(=O)N[C@@H](Cc1ccc3ccccc3c1)C(=O)N[C@H](C(=O)O)Cc1ccc(cc1)OC/C=C/C(=O)N1CCN(C(=O)[C@@H](NC(=O)[C@H](C)NC)C(C)(C)C)[C@@H](C1)C(=O)N[C@@H](Cc1ccc3ccccc3c1)C(=O)N[C@H](C(=O)O)CCC(=O)N2)C(C)(C)C` (stereo partly shown) [Example 79] were 5.6 nM and 44.3 nM.
Taken in the same sequence, the figures for `CN[C@@H](C)C(=O)N[C@H](C(=O)N1C[C@@H]2C[C@H]1C(=O)N[C@@H](Cc1ccc3ccccc3c1)C(=O)N[C@H](C(=O)O)Cc1ccc(cc1)OC/C=C/CO[C@H]1C[C@@H](C(=O)N[C@@H](C(c3ccccc3)c3ccccc3)C(=O)N[C@H](C(=O)O)Cc3ccc(cc3)C(=O)N2)N(C(=O)[C@@H](NC(=O)[C@H](C)NC)C(C)(C)C)C1)C(C)(C)C` [Example 62] were 8 nM and 60.2 nM.
